Experimental data from patent US20160341734A1, “USE OF FLUOROQUINOLONE ANTIBIOTICS” (POSTECH ACADEMY-INDUSTRY FOUNDATION, priority 2015, published 2016).
Counter-ions that a name gives are not always drawn.

Assays:
[1] = test system: pseudomonas; assay: multi-photon fluorescence in bacteria; format: cell-based
Experimental: (§1) Bacteria (pseudomonas and staphylococcus) used in the experiment, hydrochloride moxifloxacin, and a biaxial scanner (a galvano scanner of x axis and a galvano scanner of y axis) to be used by a point scanning method were prepared.
(§2) In this Experimental Example, a two-photon microscope using a femtosecond laser as a light source was used, and the multi-photon fluorescence was equally measured under the following condition throughout an experimental process.
(§3) Excitation wavelength: 780 nm for vigamox(moxifloxacin)
(§4) The bacteria were incubated under the following condition.
pseudomonas-nutrient broth (nutrient medium)
(§5) 1. A bacteria stock was put in a medium of 3 mL and cultured after overnight incubation (37° C. and 200 rpm).
(§6) 2. Here, 0.03 mL of the cultured bacteria stock was taken and put in a fresh medium of 3 mL, and then cultured (37° C. and 200 rpm) up to OD600=1.5.
3. […]
(§7) In order to compare fluorescence expression of hydrochloride moxifloxacin with auto-fluorescence expression of bacteria, fluorescence expression of bacteria (pseudomonas and staphylococcus) which are not applied with hydrochloride moxifloxacin was first photographed and intensity of the auto-fluorescence expression was recorded. Subsequently, the hydrochloride moxifloxacin was administered to the medium and then the intensity of the fluorescence expression after the incubation time was measured.

[2] = test system: staphylococcus; assay: multi-photon fluorescence in bacteria; format: cell-based
Experimental: as §1, §2, §3, §4
staphylococcus-lysogeny broth (LB medium)
as §5, §6
3. […]
as §7

[3] = test system: corneal cells of the mouse; assay: multi-photon fluorescence of corneal cells after dropping the antibiotic in the eye; format: in vivo
Experimental: Blab/c female mice after five or six weeks, gatifloxacin, hydrochloride moxifloxacin, and a multi-photon microscope including a biaxial scanner (a galvano scanner of x axis and a galvano scanner of y axis) to be used by a point scanning method were prepared.
In this Experimental Example, a two-photon microscope using a femtosecond laser as a light source was used and the multi-photon fluorescence was equally measured under the following condition throughout an experimental process.
Excitation wavelength: 780 nm for vigamox (moxifloxacin)
In order to compare fluorescence expression of hydrochloride moxifloxacin with auto-fluorescence expression of the corneal cells of the mouse, the corneal cells of the mouse which are not applied with hydrochloride moxifloxacin were first photographed.
The Blab/c mouse to be used in the experiment was anesthetized and then fixed to an eye holder for photographing the eye, and photographed by the two-photon microscope. Laser power was set as 30.8 mW, and in this case, the intensity of auto-fluorescence of the photographed mouse cornea was recorded.
In order to measure the fluorescence expression degree of the mouse cornea by vigamox (hydrochloride moxifloxacin), hydrochloride moxifloxacin of 10 μl was dropped in a left eye of the mouse and an eyelid was closed for 30 seconds. […]

[4] = single-photon fluorescence, ultraviolet-ray area; cited from earlier work
[5] = two-photon excitation and emission spectrum of the antibiotics (femtosecond laser); format: physicochemical
Excerpt: 3A illustrates an excitation spectrum of hydrochloride moxifloxacin and gatifloxacin. Here, an X axis represents a wavelength (nm) of a femtosecond laser light source used in the experiment, and a degree (a.u.) of two-photon excited fluorescence (TPF) at 700 nm to 800 nm which is a measuring range of a femtosecond laser wavelength is illustrated as a Y axis. Through the graph, it can be seen that hydrochloride moxifloxacin and gatifloxacin may represent fluorescent signals in the light source having a range of 700 nm to 800 nm which is a near-infrared wavelength. Further, in the case where the wavelength of the light source is 700 nm as shown in the intensity of the excited fluorescence graph of the Y axis, it can be seen that a fluorescent signal stronger than other wavelengths is shown. FIG. 3B illustrates an emission spectrum representing a fluorescence expression degree of each antibiotic when the femtosecond laser is applied to hydrochloride moxifloxacin and gatifloxacin. The X axis represents a wavelength (nm) and the Y axis represents the degree (a.u.) of the TPF. In the graph, in the hydrochloride moxifloxacin and the gatifloxacin, it can be seen that the fluorescent signals having wavelengths of 450 nm to 550 nm are frequently expressed and the wavelength of about 520 nm is expressed most strongly.

Structure (SMILES) | difference in signal intensity after versus before administering [1] | fluorescence signal intensity after administering ([1]; FIG. 18, before administering 9.5334 a.u.) | difference in signal intensity after versus before administering [2] | fluorescence signal intensity after administering ([2]; FIG. 18, before administering 10.4277 a.u.) | fluorescence intensity in corneal endothelium layer versus auto-fluorescence ([3]; corneal endothelium layer, FIGS. 5E, 6E vs 4E) | intensity of fluorescence expression in cornea versus auto-fluorescence ([3]; laser power 30.8 mW, same as auto-fluorescence) | excited light expressing the fluoroquinolone antibiotics (wavelength) [4] | emission wavelength expressed most strongly ([5]; two-photon emission spectrum) | light source wavelength with fluorescent signal stronger than other wavelengths ([5]; two-photon excitation spectrum, 700 nm to 800 nm measured)
COc1c(N2C[C@@H]3CCCN[C@@H]3C2)c(F)cc2c(=O)c(C(=O)O)cn(C3CC3)c12 [hydrochloride moxifloxacin, moxifloxacin] | about 10 times | 101.2196 a.u. | 10 times | 110.3189 a.u. |  |  |  |  | 
COc1c(N2CCNC(C)C2)c(F)cc2c(=O)c(C(=O)O)cn(C3CC3)c12 (stereo not drawn) [gatifloxacin] |  |  |  |  | higher than the fluorescence intensity of the auto-fluorescence expression | much larger than that of the auto-fluorescence expression | 292 nm | about 520 nm | 700 nm
